Results as given in BindingDB's records for doi:10.1021/acs.jmedchem.5b01939 (University of Messina, 2016).

Assays:
[1] = molecular target: T1, G protein-coupled receptor kinase 5 (Bos taurus, UniProt P43249); assay: ChEBML_1612831
Protocol: (§1) Inhibition of bovine GRK5 assessed as decrease in phosphorylation of tubulin after 5 mins by SDS-PAGE analysis

[2] = molecular target: T1, G protein-coupled receptor kinase 5; assay: as §1
Rhodopsin kinase GRK1 [3] = molecular target: T2, Rhodopsin kinase GRK1 (Bos taurus, UniProt P28327); assay: (§2) Inhibition of bovine GRK1 (1 to 535 residues) assessed as decrease in phosphorylation of tubulin after 5 mins by SDS-PAGE analysis
T2 sequence (P28327 whole entry): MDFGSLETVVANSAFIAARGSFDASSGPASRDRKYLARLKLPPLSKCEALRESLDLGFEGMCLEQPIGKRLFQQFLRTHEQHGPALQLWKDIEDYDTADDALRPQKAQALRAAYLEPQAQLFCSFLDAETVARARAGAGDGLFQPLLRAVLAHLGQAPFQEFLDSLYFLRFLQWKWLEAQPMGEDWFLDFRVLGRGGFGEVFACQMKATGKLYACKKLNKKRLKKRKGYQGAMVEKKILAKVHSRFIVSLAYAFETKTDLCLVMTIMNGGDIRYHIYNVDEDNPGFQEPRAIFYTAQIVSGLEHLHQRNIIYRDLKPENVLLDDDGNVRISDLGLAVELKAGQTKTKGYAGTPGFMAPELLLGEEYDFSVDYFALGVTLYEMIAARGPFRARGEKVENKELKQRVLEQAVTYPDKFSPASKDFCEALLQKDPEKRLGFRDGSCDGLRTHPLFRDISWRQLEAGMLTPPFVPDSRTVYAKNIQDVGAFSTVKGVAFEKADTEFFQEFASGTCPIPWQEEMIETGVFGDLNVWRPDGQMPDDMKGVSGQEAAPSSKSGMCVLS

Rhodopsin kinase GRK1 [4] = molecular target: T2, Rhodopsin kinase GRK1; assay: Inhibition of C-terminal hexahistidine tagged bovine GRK1 (535 residues) assessed as decrease in phosphorylation of light-activated bovine rod outer segments preincubated for 30 mins followed by ATP addition
Rhodopsin kinase GRK1 [5] = molecular target: T2, Rhodopsin kinase GRK1; assay: Inhibition of C-terminal hexahistidine tagged bovine GRK1 (535 residues) assessed as decrease in phosphorylation of tubulin preincubated for 30 mins followed by ATP addition
[6] = molecular target: T1, G protein-coupled receptor kinase 5; assay: Inhibition of C-terminal hexahistidine tagged bovine GRK5 (561 residues) assessed as decrease in phosphorylation of tubulin preincubated for 30 mins followed by ATP addition
Rhodopsin kinase GRK1 [7] = molecular target: T2, Rhodopsin kinase GRK1; assay: ChEBML_1612830
Protocol: as §2

[8] = molecular target: T1, G protein-coupled receptor kinase 5; assay: Inhibition of C-terminal hexahistidine tagged bovine GRK5 (561 residues) assessed as decrease in phosphorylation of light-activated bovine rod outer segments preincubated for 30 mins followed by ATP addition

T1 sequence (P43249 whole entry): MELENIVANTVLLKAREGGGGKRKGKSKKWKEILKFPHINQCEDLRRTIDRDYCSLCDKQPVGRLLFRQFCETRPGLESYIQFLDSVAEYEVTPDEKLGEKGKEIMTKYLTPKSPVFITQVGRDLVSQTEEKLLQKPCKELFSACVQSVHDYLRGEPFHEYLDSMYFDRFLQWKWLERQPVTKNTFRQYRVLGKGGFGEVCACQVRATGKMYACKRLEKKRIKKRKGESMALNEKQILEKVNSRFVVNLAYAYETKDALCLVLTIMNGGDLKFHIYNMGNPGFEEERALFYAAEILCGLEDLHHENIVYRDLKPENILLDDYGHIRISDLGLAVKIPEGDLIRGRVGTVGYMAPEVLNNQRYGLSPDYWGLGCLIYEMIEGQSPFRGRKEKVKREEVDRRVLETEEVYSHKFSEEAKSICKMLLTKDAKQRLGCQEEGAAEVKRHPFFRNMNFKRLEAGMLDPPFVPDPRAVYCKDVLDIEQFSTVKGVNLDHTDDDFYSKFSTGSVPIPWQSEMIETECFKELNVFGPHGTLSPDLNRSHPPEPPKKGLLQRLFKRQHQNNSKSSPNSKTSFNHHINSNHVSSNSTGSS

## CC1=C(C(=O)Nc2ccc3[nH]ncc3c2)C(c2ccc(Cl)c(Cl)c2)CC(=O)N1 (centres undefined) [4-(3,4-Dichlorophenyl)-N-1H-indazol-5-yl-2-methyl-6-oxo-1,4,5,6-tetrahydropyridine-3-carboxamide]
[1]
  IC50: 79.4 µM

## CC1=C(C(=O)Nc2ccc3[nH]ncc3c2)C(c2ccc3ccccc3c2)CC(=O)N1 (centres undefined) [N-(1H-indazol-5-yl)-2-methyl-4-(naphthalen-2-yl)-6-oxo-1,4,5,6-tetrahydropyridine-3-carboxamide]
[2]
  IC50: 63.1 µM
Rhodopsin kinase GRK1 [3]
  IC50: 794 µM

## CC1=C(C(=O)Nc2cc(Cl)c3[nH]ncc3c2)C(c2ccc(C(F)(F)F)cc2)CC(=O)N1 (centres undefined) [N-(7-chloro-1H-indazol-5-yl)-2-methyl-6-oxo-4-[4-(trifluoromethyl)phenyl]-1,4,5,6-tetrahydropyridine-3-carboxamide]
[2]
  IC50: 39.8 µM

## Fc1ccc([C@@H]2CCNC[C@H]2COc2ccc3c(c2)OCO3)cc1 [PAROXETINE]
Rhodopsin kinase GRK1 [4]
  IC50: 316 µM
Rhodopsin kinase GRK1 [5]
  IC50: 158 µM
[6]
  IC50: 126 µM
Rhodopsin kinase GRK1 [7]
  IC50: 398 µM
[8]
  IC50: 251 µM
